In patent publication US9062043B2, “Fused tricyclic compounds as serine-threonine protein kinase and PARP modulators” (SENHWA BIOSCIENCES, INC., priority 2006, dated 2015):

test system: BxPC3; test: Cell proliferation assay, Alamar Blue, BxPC3; assay type: cell-based; conditions: Homo sapiens, BXPC-3; Table 19b
Protocol: (§1) c. Plate 4,000-5,000 cells per well in 100 μl of medium and seed into a 96-well plate according to the following plate layout. Add cell culture medium only to wells B10 to B12. Wells B1 to B9 have cells but no compound added.
(§2) d. Add 100 μl of 2× drug dilution to each well in a concentration shown in the plate layout above. At the same time, add 100 μl of media into the control wells (wells B10 to B12). Total volume is 200 μl/well.
(§3) e. Incubate four (4) days at 37° C., 5% CO2 in a humidified incubator.
(§4) f. Add 20 μl Alamar Blue reagent to each well.
(§5) g. Incubate for four (4) hours at 37° C., 5% CO2 in a humidified incubator.
(§6) h. Record fluorescence at an excitation wavelength of 544 nm and emission wavelength of 590 nm using a microplate reader.
(§7) In the assays, cells are cultured with a test compound for approximately four days, the dye then is added to the cells and fluorescence of […] dye is detected after approximately four hours. Different types of cells can be utilized in the assays (e.g., HCT-116 human colorectal carcinoma cells, PC-3 human prostatic cancer cells and MiaPaca human pancreatic carcinoma cells). Anti-proliferative effects of representative compounds are provided hereafter.

SMILES | IC50
COC(=O)c1ccc2c(c1)nc(NC1CC1)c1nc(SCc3ccccc3Cl)ncc12 [drawing 1262] | 2.12 µM
C#Cc1cccc(Nc2nc3cc(C(=O)O)ccc3c3cnc(NCC4CCCO4)nc23)c1 (stereo not drawn) [drawing 1256] | 1.2 µM
O=C(O)c1ccc2c(c1)nc(NCc1ccccc1)c1ccncc12 [drawing 1218] | > 50 µM
O=C(O)c1ccc2c(c1)nc(NC1CC1)c1nc(SCc3ccccc3Cl)ncc12 [drawing 1265] | 45.3 µM
O=C(O)c1ccc2c(c1)nc(Nc1cncc(C3CC3)c1)c1ccncc12 | 38.1 µM
C#Cc1cccc(Nc2nc3cc(C(=O)O)ccc3c3cnc(NCC4CC4)nc23)c1 [drawing 1257] | 0.82 µM

Further lines, results first:

IC50 | SMILES
10.9 µM | O=C(O)c1ccc2c(c1)nc(NC1CC1)c1nc(NCc3ccccc3)ncc12 [drawing 1268]
48.9 µM | CCOc1ncc2c(n1)c(NC1CC1)nc1cc(C(=O)O)ccc12 [drawing 1266]
22.3 µM | O=C(O)c1ccc2c(c1)nc(NCc1ccccc1)c1nc(NC3CC3)ncc12 [drawing 1277]
7.39 µM | COC(=O)c1ccc2c(c1)nc(NC1CC1)c1nc(SC)ncc12 [drawing 1292]
43.8 µM | Nc1ncc2c(n1)c(NC1CC1)nc1cc(C(=O)O)ccc12 [drawing 1295]
3.92 µM | O=C(O)c1ccc2c(c1)nc(NC1CC1)c1nc(Nc3ccccc3)ncc12 [drawing 1269]
3.34 µM | CC1CCCCN1CCCNc1ncc2c(n1)c(Nc1ccc(F)c(Cl)c1)nc1cc(C(=O)O)ccc12 (stereo not drawn) [drawing 1280]
> 50 µM | O=C(O)c1ccc2c(c1)nc(NCc1cccnc1)c1nc(NC3CC3)ncc12 [drawing 1276]
> 50 µM | Cc1cc(Nc2ncc3c(n2)c(Nc2ccc(F)c(Cl)c2)nc2cc(C(=O)O)ccc23)[nH]n1 [drawing 1286]
13 µM | CN(C)CCNc1nc2cc(C(=O)O)ccc2c2cnc(NC3CC3)nc12 [drawing 1293]
2.59 µM | O=C(O)c1ccc2c(c1)nc(NC1CC1)c1nc(NC3CC3)ncc12 [drawing 1267]
5.58 µM | CCCNc1ncc2c(n1)c(NC1CC1)nc1cc(C(=O)O)ccc12 [drawing 1296]
49 µM | O=C(O)c1ccc2c(c1)nc(NC1CC1)c1ccncc12 [drawing 1290]
> 50 µM | O=C(O)c1ccc2c(c1)nc(N1CCOCC1)c1nc(NC3CC3)ncc12 [drawing 1278]

test system: H1299; test: Cell proliferation assay, Alamar Blue, H1299; assay type: cell-based; conditions: Homo sapiens, NCI-H1299; Table 16
Protocol: as §1, §2, §3, §4, §5, §6, §7

IC50 | SMILES
3.05 µM | Fc1cccc(Nc2nc3cc(-c4nnn[nH]4)ccc3c3sccc23)c1
11.7 µM | c1ccc(Nc2nc3cc(-c4nnn[nH]4)ccc3c3sccc23)cc1
15.2 µM | Clc1cccc(Nc2nc3cc(-c4nnn[nH]4)ccc3c3sccc23)c1
8.9 µM | CN(C)CCNc1nc2cc(C(=O)O)ccc2c2sccc12

test system: Hs578T; test: Cell proliferation assay, Alamar Blue, Hs578T; assay type: cell-based; conditions: Homo sapiens, Hs-578T; Table 16

SMILES | IC50
Fc1cccc(Nc2nc3cc(-c4nnn[nH]4)ccc3c3sccc23)c1 | 3.37 µM
c1ccc(Nc2nc3cc(-c4nnn[nH]4)ccc3c3sccc23)cc1 | 21.8 µM
Clc1cccc(Nc2nc3cc(-c4nnn[nH]4)ccc3c3sccc23)c1 | 5.23 µM
CN(C)CCNc1nc2cc(C(=O)O)ccc2c2sccc12 | > 50 µM

test system: MiaPaca human pancreatic carcinoma cells; test: Cell proliferation assay, Alamar Blue, MiaPaca; assay type: cell-based; conditions: MIA PaCa-2, Table 16
Protocol: (§8) A representative cell-proliferation assay protocol using Alamar Blue dye (stored at 4° C., use 20 ul per well) is described hereafter.
as §1, §2, §3, §4, §5, §6, §7

IC50 | SMILES
9.55 µM | Fc1cccc(Nc2nc3cc(-c4nnn[nH]4)ccc3c3sccc23)c1
> 10 µM | Clc1cccc(Nc2nc3cc(-c4nnn[nH]4)ccc3c3sccc23)c1

test system: HCT-116 human colorectal carcinoma cells; test: Cell proliferation assay, Alamar Blue, HCT-116; assay type: cell-based; conditions: HCT-116, Table 16, first HCT-116 column;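 note: cells exposed to compound for about 4 days, then Alamar Blue added and fluorescence read after about 4 h, medium-only wells as control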

IC50 | SMILES
> 10 µM | c1ccc(Nc2nc3cc(-c4nnn[nH]4)ccc3c3sccc23)cc1
> 10 µM | CN(C)CCNc1nc2cc(C(=O)O)ccc2c2sccc12

test system: PanC1; test: Cell proliferation assay, Alamar Blue, PanC1; assay type: cell-based; conditions: Homo sapiens, PANC-1; Table 19b; read-out: IC50 PanC1
Protocol: as §8, §1, §2, §3, §4, §5, §6, §7

SMILES | IC50
COC(=O)c1ccc2c(c1)nc(NC1CC1)c1nc(SCc3ccccc3Cl)ncc12 [drawing 1262] | 3.48 µM
C#Cc1cccc(Nc2nc3cc(C(=O)O)ccc3c3cnc(NCC4CCCO4)nc23)c1 (stereo not drawn) [drawing 1256] | 6.66 µM
O=C(O)c1ccc2c(c1)nc(NCc1ccccc1)c1ccncc12 [drawing 1218] | > 50 µM
O=C(O)c1ccc2c(c1)nc(NC1CC1)c1nc(SCc3ccccc3Cl)ncc12 [drawing 1265] | > 50 µM
O=C(O)c1ccc2c(c1)nc(Nc1cncc(C3CC3)c1)c1ccncc12 | > 50 µM
C#Cc1cccc(Nc2nc3cc(C(=O)O)ccc3c3cnc(NCC4CC4)nc23)c1 [drawing 1257] | 1.3 µM

Now from value to compound:

IC50 | SMILES
25.8 µM | O=C(O)c1ccc2c(c1)nc(NC1CC1)c1nc(NCc3ccccc3)ncc12 [drawing 1268]
> 50 µM | CCOc1ncc2c(n1)c(NC1CC1)nc1cc(C(=O)O)ccc12 [drawing 1266]
19.1 µM | O=C(O)c1ccc2c(c1)nc(NCc1ccccc1)c1nc(NC3CC3)ncc12 [drawing 1277]
> 50 µM | COC(=O)c1ccc2c(c1)nc(NC1CC1)c1nc(SC)ncc12 [drawing 1292]
> 50 µM | Nc1ncc2c(n1)c(NC1CC1)nc1cc(C(=O)O)ccc12 [drawing 1295]
4.02 µM | O=C(O)c1ccc2c(c1)nc(NC1CC1)c1nc(Nc3ccccc3)ncc12 [drawing 1269]
10.5 µM | CC1CCCCN1CCCNc1ncc2c(n1)c(Nc1ccc(F)c(Cl)c1)nc1cc(C(=O)O)ccc12 (stereo not drawn) [drawing 1280]
> 50 µM | O=C(O)c1ccc2c(c1)nc(NCc1cccnc1)c1nc(NC3CC3)ncc12 [drawing 1276]
> 50 µM | Cc1cc(Nc2ncc3c(n2)c(Nc2ccc(F)c(Cl)c2)nc2cc(C(=O)O)ccc23)[nH]n1 [drawing 1286]
> 50 µM | CN(C)CCNc1nc2cc(C(=O)O)ccc2c2cnc(NC3CC3)nc12 [drawing 1293]
2.6 µM | O=C(O)c1ccc2c(c1)nc(NC1CC1)c1nc(NC3CC3)ncc12 [drawing 1267]
1.33 µM | CCCNc1ncc2c(n1)c(NC1CC1)nc1cc(C(=O)O)ccc12 [drawing 1296]
> 50 µM | O=C(O)c1ccc2c(c1)nc(NC1CC1)c1ccncc12 [drawing 1290]
> 50 µM | O=C(O)c1ccc2c(c1)nc(N1CCOCC1)c1nc(NC3CC3)ncc12 [drawing 1278]

test system: Jurkat; test: Cell proliferation assay, Alamar Blue, Jurkat; assay type: cell-based; conditions: Homo sapiens, Table 16;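 note: cells exposed to compound for about 4 days at 37 °C, then Alamar Blue added and fluorescence read after about 4 h, controls given medium without drug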

IC50 | SMILES
8.89 µM | Clc1cccc(Nc2nc3cc(-c4nnn[nH]4)ccc3c3sccc23)c1

test system: PC-3 human prostatic cancer cells; test: Cell proliferation assay, Alamar Blue, PC-3; assay type: cell-based; conditions: Table 16, read-out: IC50 PC3
Protocol: as §8, §1, §2, §3, §4, §5, §6, §7

IC50 | SMILES
2.89 µM | Fc1cccc(Nc2nc3cc(-c4nnn[nH]4)ccc3c3sccc23)c1
20 µM | c1ccc(Nc2nc3cc(-c4nnn[nH]4)ccc3c3sccc23)cc1
12 µM | Clc1cccc(Nc2nc3cc(-c4nnn[nH]4)ccc3c3sccc23)c1
> 50 µM | CN(C)CCNc1nc2cc(C(=O)O)ccc2c2sccc12
